The values that follow come from ChEMBL document CHEMBL4699652, “Proline Hinged Amphipathic α-Helical Peptide Sensitizes Gram-Negative Bacteria to Various Gram-Positive Antibiotics” (J Med Chem, 2020).

Data set [1] has as its system Escherichia coli. Nature of the data set: Sensitization of clarithromycin-induced antimicrobial activity against Cst-resistant Escherichia coli isolates assessed as inhibition of bacterial growth at 8 ug/ml incubated for 18 hrs by CLSI based method. In kind it is functional, organism-based. To be noted: dose 8.0 µg/ml.
The test system of data set [2] is Escherichia coli. Nature of the data set: Sensitization of rifampicin-induced induction of cell killing in Escherichia coli assessed as time needed for bacterial destruction at 8 ug/ml. It counts as functional. As to conditions: dose 8 µg/ml.
The nature of data set [3]: Induction of cell membrane permeability in POPE/POPG assessed as calcein leakage at 2 to 8 uM. To be noted: dose microM 2-8.
The subject of data set [4] is Escherichia coli. As to the kind of experiment: Sensitization of rifampicin-induced antimicrobial activity against Escherichia coli ATCC 25922 assessed as inhibition of bacterial growth at 4 to 8 ug/ml incubated for 18 hrs by CLSI based method. To be noted: dose microg/ml 4-8. It counts as functional.
The subject of data set [5] is Lipopolysaccharide (LPS). Nature of the data set: Binding affinity to inner core/lipid A region of LPS in Escherichia coli ATCC 25922 at 1.25 uM incubated for 10 mins by protein-retention expansion microscopy.
Data set [6] deals with Lipopolysaccharide (LPS). As to the kind of experiment: Binding affinity to Escherichia coli LPS in POPE/POPG lipid layers containing wild-type LPS by SPR assay. A general note: SPR reads the build-up and loss of mass on a sensor chip optically.
The next data set has as its system Erythrocyte. As to the kind of experiment: Hemolytic activity in human red blood cells assessed as induction of hemoglobin release incubated for 4 hrs by microplate reader based assay. In kind it is cell-based.
The subject of data set [7] is Escherichia coli. Nature of the data set: Induction of cell lysis in Escherichia coli at 5 uM by transmission electron microscopy. It counts as functional, organism-based.
In data set [8] the test system is Escherichia coli. As to the kind of experiment: Sensitization of linezolid-induced antimicrobial activity against Cst-resistant Escherichia coli isolates assessed as inhibition of bacterial growth at 8 ug/ml incubated for 18 hrs by CLSI based method. In kind it is functional, organism-based. To be noted: dose 8.0 µg/ml.
Data set [9] concerns Escherichia coli. As to the kind of experiment: Sensitization of colistin-induced antimicrobial activity against NDM-1 producing carbapenem-resistant Escherichia coli infected in ICR CD1 mouse model of sepsis protection model assessed as increase in mouse survival at 12.5 mg/kg, sc QD for 1 days co-treated with 40 mg/kg, sc QD colistin. It counts as functional. To be noted: time 1 day.

Data set [10] deals with Lipopolysaccharide (LPS). Nature of the data set: Binding affinity to O-antigen-deficient Escherichia coli LPS in POPE/POPG lipid layers containing O-antigen-deficient LPS by SPR assay.
Data set [11] relates to Escherichia coli. Nature of the data set: Sensitization of rifampicin-induced antimicrobial activity against Escherichia coli ATCC 25922 infected in ICR CD1 mouse model of sepsis protection model assessed as increase in mouse survival at 30 mg/kg, ip q1h x 8 hrs for 7 days co-treated with 5 mg/kg, sc q4h x 8 hrs rifampicin. In kind it is functional, organism-based. To be noted: time 7.0 day.

The next data set has as its system Cell membrane. Nature of the data set: Induction of inner membrane permeability in Escherichia coli at 5 uM incubated for 1 hr by SYTOX Green-staining based flow cytometry analysis. In kind it is subcellular. In general terms: In flow cytometry, cells or beads pass a laser one at a time.

Calls of active or inactive are those of the source. The rule behind the calls is not given here.

For the substance Ac-KLLKLLKKPLKLLK-NH2, the outcome in the data set with Escherichia coli [1], in the data set with Lipopolysaccharide (LPS) [5], with Lipopolysaccharide (LPS) [6], in the data set on Escherichia coli [8], in the data set on Lipopolysaccharide (LPS) [10] and with Escherichia coli [11] was Active. Also, the Time with Escherichia coli [2] was found to be 8 h. Further, the result (in data set [3]; in the data set on Escherichia coli [7]; in the data set on Cell membrane) was inactive. For the same substance, in the data set on Escherichia coli [4], the “fold change (FC)” value is listed as “<=212”. Also, the HC10 in the data set with Erythrocyte was more than 1280 µM. Besides, the Activity with Escherichia coli [9] worked out at 75%.
